Measurements taken from ChEMBL document CHEMBL1201862, “PubChem BioAssay data set” (2004).
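Where inhibition never reached the appropriate level, the endpoint shown equals the highest concentration tested. Otherwise, values were interpolated linearly from a five-concentration, 48-hour dose response in 96-well plates. The concentration for 50% growth inhibition is given as GI50.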 Activity calls are given as the source filed them. Cut-off read from the data, not from the text of the source: active = GI50 up to about 1.1 µM and inactive = higher.

Columns and labels:
Experiment in all cases: NCI tumour cell line growth inhibition, 48 h
[1] = test system: HCT-116
[2] = test system: SF-295
[3] = test system: IGROV-1
[4] = test system: OVCAR-5
[5] = test system: NCI-H23
[6] = test system: OVCAR-3
[7] = test system: UACC-62
[8] = test system: OVCAR-8
[9] = test system: OVCAR-4
[10] = test system: SF-539
[11] = test system: K562
[12] = test system: UACC-257
[13] = test system: TK-10
[14] = test system: HOP-92
[15] = test system: CCRF-CEM
[16] = test system: UO-31
[17] = test system: ACHN
[18] = test system: SW-620

Structure (SMILES)	GI50 [1]	GI50 [2]	GI50 [3]	GI50 [4]	GI50 [5]	GI50 [6]	GI50 [7]	GI50 [8]	GI50 [9]	GI50 [10]	GI50 [11]	GI50 [12]	GI50 [13]	GI50 [14]	GI50 [15]	GI50 [16]	GI50 [17]	GI50 [18]
Cc1ccc([S+]([O-])C(C)C(Cl)c2ccccc2)cc1 (stereo not drawn)	> 100 µM (inactive)	86.7 µM (inactive)	60.4 µM (inactive)	> 100 µM (inactive)	72.3 µM (inactive)	53.7 µM (inactive)	80 µM (inactive)	78 µM (inactive)	> 100 µM (inactive)	> 100 µM (inactive)	45.8 µM (inactive)	34.7 µM (inactive)	> 100 µM (inactive)	> 100 µM (inactive)	47.6 µM (inactive)	> 100 µM (inactive)	> 100 µM (inactive)	> 100 µM (inactive)
CC(=O)NC1C(OCc2ccccc2)OC(COC(=O)CCCCCCCCCCNC(=O)c2cccc3c(=O)c4ccccc4[nH]c23)C(O)C1OC(C)C(=O)NC(C)C(=O)NC(CCC(N)=O)C(N)=O (stereo not drawn)	79.8 µM (inactive)	71.1 µM (inactive)	50.1 µM (inactive)	> 100 µM (inactive)	46.1 µM (inactive)	43.8 µM (inactive)	35.2 µM (inactive)	94.8 µM (inactive)	61 µM (inactive)	92.9 µM (inactive)	35.6 µM (inactive)	> 100 µM (inactive)	> 100 µM (inactive)			> 100 µM (inactive)	55.8 µM (inactive)	96.6 µM (inactive)
N#Cc1c2c(c(N=[N+]=[N-])n3c1nc1ccccc13)CCCC2	1.43 µM (inactive)	2.05 µM (inactive)	2.72 µM (inactive)	6.07 µM (inactive)	2.55 µM (inactive)	3.37 µM (inactive)		1.69 µM (inactive)	2.49 µM (inactive)	1.93 µM (inactive)	2.16 µM (inactive)	1.71 µM (inactive)	2.77 µM (inactive)			1.94 µM (inactive)	2.16 µM (inactive)	2.05 µM (inactive)
[N-]=[N+]=NC1C(Br)C(=O)NC(=O)N1[C@H]1C[C@H](O)[C@@H](CO)O1 (stereo partly drawn)		> 100 µM (inactive)	> 100 µM (inactive)	> 100 µM (inactive)	> 100 µM (inactive)	> 100 µM (inactive)	> 100 µM (inactive)	> 100 µM (inactive)	> 100 µM (inactive)	> 100 µM (inactive)	> 100 µM (inactive)	> 100 µM (inactive)	> 100 µM (inactive)	> 100 µM (inactive)		> 100 µM (inactive)	> 100 µM (inactive)	> 100 µM (inactive)
N/N=c1\c2ccccc2c2cc3c(cc12)/c(=N/N)c1ccccc13	> 100 µM (inactive)	> 100 µM (inactive)	> 100 µM (inactive)	> 100 µM (inactive)	> 100 µM (inactive)		> 100 µM (inactive)	> 100 µM (inactive)	> 100 µM (inactive)	> 100 µM (inactive)	> 100 µM (inactive)	> 100 µM (inactive)		> 100 µM (inactive)	> 100 µM (inactive)	> 100 µM (inactive)	> 100 µM (inactive)	> 100 µM (inactive)
CC(C)C/C(CC(=O)CCC(=O)Nc1ccccc1[N+](=O)[O-])=N\NC(=O)c1cc2ccccc2cc1O	49.1 µM (inactive)	43.5 µM (inactive)	26 µM (inactive)	31 µM (inactive)	50.7 µM (inactive)	26.7 µM (inactive)	25.7 µM (inactive)	23.1 µM (inactive)		27.1 µM (inactive)	25.9 µM (inactive)	37 µM (inactive)	51.2 µM (inactive)	64 µM (inactive)	9.14 µM (inactive)	37 µM (inactive)	34.1 µM (inactive)	41.4 µM (inactive)
O=C(CSc1nnc(-c2ccc(/N=C\c3ccc(Cl)cc3)cc2)o1)Nc1ccc(Cl)cc1	> 100 µM (inactive)	> 100 µM (inactive)			> 100 µM (inactive)		> 100 µM (inactive)	> 100 µM (inactive)	> 100 µM (inactive)		> 100 µM (inactive)	> 100 µM (inactive)	> 100 µM (inactive)		> 100 µM (inactive)	> 100 µM (inactive)	> 100 µM (inactive)	> 100 µM (inactive)
N#C/C(=C/c1cccnc1)C(=O)c1ccccc1	> 100 µM (inactive)	> 100 µM (inactive)		> 100 µM (inactive)	> 100 µM (inactive)	> 100 µM (inactive)	> 100 µM (inactive)	> 100 µM (inactive)	> 100 µM (inactive)	> 100 µM (inactive)	> 100 µM (inactive)	> 100 µM (inactive)	> 100 µM (inactive)	> 100 µM (inactive)	> 100 µM (inactive)	> 100 µM (inactive)	> 100 µM (inactive)	> 100 µM (inactive)
O=C(COC(=O)c1cccc2c(=O)c3ccccc3[nH]c12)Nc1ccccc1	24.2 µM (inactive)	50.8 µM (inactive)	> 100 µM (inactive)		19.5 µM (inactive)	53.2 µM (inactive)	26.4 µM (inactive)	37 µM (inactive)	45.6 µM (inactive)	51.8 µM (inactive)	33.2 µM (inactive)	38.2 µM (inactive)	> 100 µM (inactive)	45 µM (inactive)		22.2 µM (inactive)	41.8 µM (inactive)	90.8 µM (inactive)
CSc1nc(SC)c2c(C(N)=S)n[nH]c2n1		6 µM (inactive)	30.4 µM (inactive)		23.8 µM (inactive)	22.1 µM (inactive)	21.8 µM (inactive)	28.8 µM (inactive)	21.2 µM (inactive)	23.1 µM (inactive)	26.2 µM (inactive)	21.8 µM (inactive)	23.3 µM (inactive)	25.2 µM (inactive)	26.2 µM (inactive)	19 µM (inactive)	24 µM (inactive)	37 µM (inactive)
Cc1cc2c(c3nocc13)C(=O)c1ccccc1C2=O		> 100 µM (inactive)	> 100 µM (inactive)	> 100 µM (inactive)	> 100 µM (inactive)	> 100 µM (inactive)	> 100 µM (inactive)	> 100 µM (inactive)	> 100 µM (inactive)	> 100 µM (inactive)	> 100 µM (inactive)	> 100 µM (inactive)	> 100 µM (inactive)	16.2 µM (inactive)	> 100 µM (inactive)	> 100 µM (inactive)	> 100 µM (inactive)	> 100 µM (inactive)
O=c1c2ccccc2nc(-c2ccccc2)n1NC(=S)Nc1ccc(Cl)cc1	55.1 µM (inactive)	> 100 µM (inactive)	> 100 µM (inactive)	> 100 µM (inactive)	53.6 µM (inactive)		55.2 µM (inactive)	> 100 µM (inactive)	74.3 µM (inactive)	> 100 µM (inactive)	48.4 µM (inactive)	75.9 µM (inactive)	> 100 µM (inactive)	> 100 µM (inactive)	58.3 µM (inactive)	61.5 µM (inactive)	77.1 µM (inactive)	> 100 µM (inactive)
COC(=O)c1cc2c(c(C(=O)OC)c1O)C(=O)C=CC2=O	> 9.1 µM (inactive)	27 µM (inactive)	24.1 µM (inactive)	> 40.4 µM (inactive)	> 31.6 µM (inactive)	> 41.2 µM (inactive)	> 9.1 µM (inactive)	> 21.4 µM (inactive)	> 38.8 µM (inactive)	> 41.6 µM (inactive)		> 32.8 µM (inactive)	> 39.4 µM (inactive)	8.2 µM (inactive)	1.63 µM (inactive)	> 42.9 µM (inactive)	> 31.3 µM (inactive)	
CCOC(=O)/C(=C\c1ccc(N(CCC#N)CCC#N)cc1)NC(=O)c1cc([N+](=O)[O-])ccc1Cl	> 100 µM (inactive)	> 100 µM (inactive)	> 100 µM (inactive)	> 100 µM (inactive)	> 100 µM (inactive)	63.4 µM (inactive)	> 100 µM (inactive)	> 100 µM (inactive)	> 100 µM (inactive)	> 100 µM (inactive)	> 100 µM (inactive)	> 100 µM (inactive)	> 100 µM (inactive)		55.1 µM (inactive)	69 µM (inactive)	> 100 µM (inactive)	> 100 µM (inactive)
S=c1cc(S)c2c(=S)sc3nc4ccccn4c(=S)c3c2s1	25 µM (inactive)	> 100 µM (inactive)		> 100 µM (inactive)	> 100 µM (inactive)	28.2 µM (inactive)	36.4 µM (inactive)	33.3 µM (inactive)	> 100 µM (inactive)	41 µM (inactive)	18.5 µM (inactive)		> 100 µM (inactive)	> 100 µM (inactive)	32.7 µM (inactive)	72.4 µM (inactive)	> 100 µM (inactive)	> 100 µM (inactive)
CC[S+](C)c1ccc(-c2c3nc(c(-c4ccc([S+](C)CC)cc4)c4ccc([nH]4)c(-c4ccc([S+](C)CC)cc4)c4nc(c(-c5ccc([S+](C)CC)cc5)c5ccc2[nH]5)C=C4)C=C3)cc1.[O-][Cl+3]([O-])([O-])[O-].[O-][Cl+3]([O-])([O-])[O-].[O-][Cl+3]([O-])([O-])[O-].[O-][Cl+3]([O-])([O-])[O-] (stereo not drawn)	27.9 µM (inactive)	28.7 µM (inactive)		21.7 µM (inactive)	38.6 µM (inactive)	56.9 µM (inactive)	12.9 µM (inactive)	22.9 µM (inactive)	> 100 µM (inactive)	27.4 µM (inactive)	13.9 µM (inactive)	31 µM (inactive)		0.649 µM (active)	18.9 µM (inactive)		29.6 µM (inactive)	28.3 µM (inactive)
